Test results published in patent US9034303B2, “Neuroprotective and neuro-restorative iron chelators and monoamine oxidase inhibitors and uses thereof” (priority 2010, dated 2015).
Entries after “also recorded” stand apart in the source; their conditions may differ.

Columns and labels:
[1] = prior publications; cited from earlier work
[2] = Follow-up stability experiment at 37° C. in PBS; assay type: physicochemical
Method: (§1) Using high pressure liquid chromatography (HPLC), the stability of each of the tested compounds was determined by following its respective chemical character over time in either phosphate buffered saline (PBS) and/or 0.85% saline solution (sodium chloride). In each case, 0.5 mM of the tested compound in PBS or saline solution was incubated at 25° C. or at 37° C. for 20 hours or, in some cases, up to two days (48 hours).
In addition, in a follow-up experiment the instability of M30, and the stability of compounds 3, 7 and 8 was also confirmed at 37° C. in PBS, Table 2, below.

MAO-A = MAO-A (Mus musculus (Mouse), UniProt Q64133); assay type: in vivo, mice; details: mice, single i.p. injection, small intestine, one hour later
Chain of MAO-A (Q64133 whole entry): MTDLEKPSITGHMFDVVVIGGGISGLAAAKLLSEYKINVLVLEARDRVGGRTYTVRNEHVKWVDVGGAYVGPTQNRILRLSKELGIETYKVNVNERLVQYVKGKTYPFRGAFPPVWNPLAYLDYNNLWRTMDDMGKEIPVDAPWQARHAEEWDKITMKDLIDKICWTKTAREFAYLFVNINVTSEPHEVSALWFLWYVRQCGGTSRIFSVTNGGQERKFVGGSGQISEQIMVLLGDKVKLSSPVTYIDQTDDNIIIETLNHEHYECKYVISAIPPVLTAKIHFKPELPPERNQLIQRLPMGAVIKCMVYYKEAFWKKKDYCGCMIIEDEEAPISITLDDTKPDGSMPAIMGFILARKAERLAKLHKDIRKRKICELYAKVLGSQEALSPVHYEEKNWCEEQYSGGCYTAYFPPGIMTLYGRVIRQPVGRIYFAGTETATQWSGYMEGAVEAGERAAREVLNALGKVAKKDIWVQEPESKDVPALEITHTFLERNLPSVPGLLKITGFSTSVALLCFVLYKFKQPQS
Method: (§2) For the MAO-inhibition study, mice (6 mice in each group) were injected intraperitoneally (i.p.) with compound 3 at the dosage of 5 or 10 mg/kg; or with M30 at the dosage of 10 mg/kg. Control mice received saline (0.1 mL) i.p. One hour later the mice were killed by cervical dislocation, while striatum and small intestine were removed rapidly and frozen in liquid nitrogen for further analysis. FIGS. 3 and 4 show MAO-A/MAO-B in vivo activity of compound 3 compared to the activity of M30. FIG. 3 presents an MAO inhibition in striatum, and FIG. 4 presents an MAO inhibition in intestine. The percent inhibition was computed based on comparison to control animals.

[3] = tested on: 6-OHDA-induced lesions of nigrostrial dopamine neurons; details: prior publications; cited from earlier work
[4] = Cytotoxicity experiments conducted in the past with M30, A549; assay type: cell-based; details: human, A549 cells, methods not identical, read-out: LC50 (μM) A549
From the text: (§3) Moreover, the outcomes of the cytotoxicity experiments compare very favorably with those conducted in the past with M30.

SHSY-5Y = assay: Cytotoxicity experiments conducted in the past with M30, SHSY-5Y; assay type: cell-based, human; details: past experiments
From the text: as §3

[5] = as above; assay type: cell-based, human; details: human, SH-SY5Y cells; experiments conducted in the past, methods not identical; read-out: LC50 (μM) SHSY-5Y
From the text: as §3

MAO-B = MAO-B (Mus musculus (Mouse), UniProt Q8BW75); assay: In vivo MAO-B inhibition in mice after a single i.p. injection; details: small intestine, one hour later
Chain of MAO-B (Q8BW75 whole entry): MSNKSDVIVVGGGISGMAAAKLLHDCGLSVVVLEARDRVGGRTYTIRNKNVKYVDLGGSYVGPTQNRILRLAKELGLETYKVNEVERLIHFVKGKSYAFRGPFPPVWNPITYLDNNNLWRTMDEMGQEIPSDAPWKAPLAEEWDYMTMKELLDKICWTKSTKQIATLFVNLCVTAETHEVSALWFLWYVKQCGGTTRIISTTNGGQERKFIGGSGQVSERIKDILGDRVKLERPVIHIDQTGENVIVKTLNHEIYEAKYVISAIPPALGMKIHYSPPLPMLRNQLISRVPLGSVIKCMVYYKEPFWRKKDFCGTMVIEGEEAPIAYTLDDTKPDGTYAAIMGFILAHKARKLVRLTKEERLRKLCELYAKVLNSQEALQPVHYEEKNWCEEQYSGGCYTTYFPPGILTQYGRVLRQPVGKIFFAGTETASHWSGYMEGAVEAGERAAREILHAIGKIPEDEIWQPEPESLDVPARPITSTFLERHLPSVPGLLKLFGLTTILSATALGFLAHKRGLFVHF
Method: as §2

[6] = Stability in aqueous solution (PBS or saline) followed by HPLC; assay type: physicochemical; details: for Amount of compound remaining (%): 25° C., 0.5 mM
Method: as §1

[7] = Cytotoxicity experiments conducted in the past with M30, HepG2; assay type: cell-based; details: human, HepG2 cells, methods not identical, read-out: LC50 (μM) HepG2
From the text: as §3

C#CCN(C)Cc1ccc(O)c2ncccc12 [Compound M30, 5-[(methyl-2-propyn-1-ylamino)methyl]-8-quinolinol, reference compound]
Crossing of the BBB [1]: able to cross the BBB
Stability at 37° C. in PBS (in words) [2]: instability
Amount of compound remaining (%) ([2]; 0.5 hours): 50.8%
Amount of compound remaining (%) ([2]; 1 hour): 54.9%
Amount of compound remaining (%) ([2]; 2 hours): 45.1%
Amount of compound remaining (%) ([2]; 4 hours): 24.3%
Amount of compound remaining (%) ([2]; 8 hours): 14.4%
Amount of compound remaining (%) ([2]; 24 hours): 4.26%
MAO-A inhibition in intestine (MAO-A): Reduced inhibition in the intestinal tissue versus striatal tissue
Activity against 6-OHDA in an animal model of Parkinson's disease [3]: active against 6-hydroxydopamine (6-OHDA)
CC50 [4]: > 1000 µM
SHSY-5Y cell death (%) (SHSY-5Y; with iron, M30 1 μM): 0.69%
SHSY-5Y cell death (%) (SHSY-5Y; with iron, M30 10 μM): 78.6%
SHSY-5Y cell death (%) (SHSY-5Y; with iron, M30 100 μM): 38.5%
SHSY-5Y cell death (%) (SHSY-5Y; without iron, M30 1 μM): −2. %
SHSY-5Y cell death (%) (SHSY-5Y; without iron, M30 10 μM): 1.0%
SHSY-5Y cell death (%) (SHSY-5Y; without iron, M30 100 μM): 19. %
CC50 [5]: > 1000 µM
MAO-B inhibition in intestine (MAO-B): Reduced inhibition in the intestinal tissue versus striatal tissue
Stability in aqueous solution (in words) ([6]; PBS and/or saline solution): unstable in aqueous solution; also recorded: degraded in both PBS and saline solution
Amount of compound remaining (%) ([6]; PBS, 0.5 hours): 76%
Amount of compound remaining (%) ([6]; PBS, 2 hours): 57%
Amount of compound remaining (%) ([6]; PBS, 20 hours): 28%
Amount of compound remaining (%) ([6]; PBS, 48 hours): 15%
Amount of compound remaining (%) ([6]; saline, 0.5 hours): 98%
Amount of compound remaining (%) ([6]; saline, 2 hours): 85%
Amount of compound remaining (%) ([6]; saline, 20 hours): 22%
CC50 [7]: 842 µM
